{
  "source": "PubChem BioAssay (NCI)",
  "assay_in_all_cases": "NCI tumour cell line growth inhibition, 48 h",
  "key": {"SK-MEL-28 melanoma": {"tested_on": "SK-MEL-28 melanoma"}, "SNB-19 CNS": {"tested_on": "SNB-19 CNS"}, "UACC-62 melanoma": {"tested_on": "UACC-62 melanoma"}, "BT-549 breast": {"tested_on": "BT-549 breast"}, "SNB-75 CNS": {"tested_on": "SNB-75 CNS"}, "PC-3 prostate": {"tested_on": "PC-3 prostate"}, "SN12C renal": {"tested_on": "SN12C renal"}, "NCI-H522 lung": {"tested_on": "NCI-H522 lung"}, "NCI-H460 lung": {"tested_on": "NCI-H460 lung"}, "A549 NSCLC": {"tested_on": "A549 NSCLC"}, "HCC-2998 colon": {"tested_on": "HCC-2998 colon"}, "HOP-62 NSCLC": {"tested_on": "HOP-62 NSCLC"}, "NCI-H23 lung": {"tested_on": "NCI-H23 lung"}, "MOLT-4 leukemia": {"tested_on": "MOLT-4 leukemia"}, "ACHN renal": {"tested_on": "ACHN renal"}, "MDA-MB-231 breast": {"tested_on": "MDA-MB-231 breast"}, "HOP-92 NSCLC": {"tested_on": "HOP-92 NSCLC"}, "MCF7 breast": {"tested_on": "MCF7 breast"}, "COLO 205 colon": {"tested_on": "COLO 205 colon"}, "HT29 colon": {"tested_on": "HT29 colon"}, "CCRF-CEM leukemia": {"tested_on": "CCRF-CEM leukemia"}, "TK-10 renal": {"tested_on": "TK-10 renal"}, "OVCAR-5 ovarian": {"tested_on": "OVCAR-5 ovarian"}, "786-0 renal": {"tested_on": "786-0 renal"}, "SK-OV-3 ovarian": {"tested_on": "SK-OV-3 ovarian"}, "SF-539 CNS": {"tested_on": "SF-539 CNS"}, "IGROV1 ovarian": {"tested_on": "IGROV1 ovarian"}, "EKVX NSCLC": {"tested_on": "EKVX NSCLC"}, "U251 CNS": {"tested_on": "U251 CNS"}, "OVCAR-8 ovarian": {"tested_on": "OVCAR-8 ovarian"}, "NCI/ADR-RES ovarian": {"tested_on": "NCI/ADR-RES ovarian"}, "KM12 colon": {"tested_on": "KM12 colon"}, "HCT-15 colon": {"tested_on": "HCT-15 colon"}, "M14 melanoma": {"tested_on": "M14 melanoma"}, "SW-620 colon": {"tested_on": "SW-620 colon"}, "OVCAR-4 ovarian": {"tested_on": "OVCAR-4 ovarian"}},
  "note": "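96-well plates; 48 h exposure; 5 concentrations. Endpoints by linear interpolation between flanking doses. Not reached: highest tested concentration assigned. GI50 marks 50% less growth. At the TGI there is no net growth.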",
  "data": [
    {"compound": "COc1cccc(-c2cc(=O)c3cc(N)ccc3[nH]2)c1", "values": [
      {"measurement": "TGI", "setting": "SK-MEL-28 melanoma", "result": "> 100", "unit": "µM"},
      {"measurement": "TGI", "setting": "SNB-19 CNS", "result": "> 100", "unit": "µM"},
      {"measurement": "TGI", "setting": "UACC-62 melanoma", "result": "> 100", "unit": "µM"},
      {"measurement": "TGI", "setting": "BT-549 breast", "result": "> 100", "unit": "µM"},
      {"measurement": "TGI", "setting": "SNB-75 CNS", "result": "> 100", "unit": "µM"},
      {"measurement": "TGI", "setting": "PC-3 prostate", "result": "> 100", "unit": "µM"},
      {"measurement": "TGI", "setting": "SN12C renal", "result": "> 100", "unit": "µM"},
      {"measurement": "TGI", "setting": "NCI-H522 lung", "result": 7.56, "unit": "µM"},
      {"measurement": "TGI", "setting": "NCI-H460 lung", "result": "> 100", "unit": "µM"},
      {"measurement": "TGI", "setting": "A549 NSCLC", "result": "> 100", "unit": "µM"},
      {"measurement": "TGI", "setting": "HCC-2998 colon", "result": 48.6, "unit": "µM"},
      {"measurement": "TGI", "setting": "HOP-62 NSCLC", "result": "> 100", "unit": "µM"},
      {"measurement": "TGI", "setting": "NCI-H23 lung", "result": "> 100", "unit": "µM"},
      {"measurement": "TGI", "setting": "MOLT-4 leukemia", "result": "> 100", "unit": "µM"},
      {"measurement": "TGI", "setting": "ACHN renal", "result": "> 100", "unit": "µM"},
      {"measurement": "TGI", "setting": "MDA-MB-231 breast", "result": "> 100", "unit": "µM"},
      {"measurement": "TGI", "setting": "HOP-92 NSCLC", "result": 59.7, "unit": "µM"},
      {"measurement": "TGI", "setting": "MCF7 breast", "result": "> 100", "unit": "µM"},
      {"measurement": "TGI", "setting": "COLO 205 colon", "result": "> 100", "unit": "µM"},
      {"measurement": "TGI", "setting": "HT29 colon", "result": 18, "unit": "µM"},
      {"measurement": "TGI", "setting": "CCRF-CEM leukemia", "result": "> 100", "unit": "µM"},
      {"measurement": "TGI", "setting": "TK-10 renal", "result": "> 100", "unit": "µM"},
      {"measurement": "TGI", "setting": "OVCAR-5 ovarian", "result": "> 100", "unit": "µM"},
      {"measurement": "TGI", "setting": "786-0 renal", "result": "> 100", "unit": "µM"},
      {"measurement": "TGI", "setting": "SK-OV-3 ovarian", "result": 6.79, "unit": "µM"},
      {"measurement": "TGI", "setting": "SF-539 CNS", "result": 5.2, "unit": "µM"},
      {"measurement": "TGI", "setting": "IGROV1 ovarian", "result": "> 100", "unit": "µM"},
      {"measurement": "TGI", "setting": "EKVX NSCLC", "result": "> 100", "unit": "µM"},
      {"measurement": "TGI", "setting": "U251 CNS", "result": "> 100", "unit": "µM"},
      {"measurement": "TGI", "setting": "OVCAR-8 ovarian", "result": "> 100", "unit": "µM"},
      {"measurement": "TGI", "setting": "NCI/ADR-RES ovarian", "result": 11.9, "unit": "µM"},
      {"measurement": "TGI", "setting": "KM12 colon", "result": "> 100", "unit": "µM"},
      {"measurement": "TGI", "setting": "HCT-15 colon", "result": "> 100", "unit": "µM"},
      {"measurement": "TGI", "setting": "M14 melanoma", "result": "> 100", "unit": "µM"},
      {"measurement": "TGI", "setting": "SW-620 colon", "result": "> 100", "unit": "µM"},
      {"measurement": "GI50", "setting": "OVCAR-4 ovarian", "result": 82.3, "unit": "µM"},
      {"measurement": "TGI", "setting": "OVCAR-4 ovarian", "result": "> 100", "unit": "µM"}
    ]}
  ]
}
